Measured values: PubChem BioAssay (NCI)
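Tested at 5 concentrations; 48 h exposure; 96-well plates; endpoints linearly interpolated, else capped at highest concentration. GI50 is the concentration that inhibits growth by half. TGI: total growth inhibition.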

What was measured:
Assay in all cases: DTP human tumour cell line panel, 48 h
[1] = system: UACC-257 melanoma
[2] = system: HCT-116 colon
[3] = system: TK-10 renal
[4] = system: SF-539 CNS
[5] = system: SK-MEL-2 melanoma
[6] = system: CAKI-1 renal
[7] = system: IGROV1 ovarian
[8] = system: MCF7 breast
[9] = system: HCT-15 colon
[10] = system: M14 melanoma
[11] = system: SNB-19 CNS
[12] = system: 786-0 renal
[13] = system: HOP-92 NSCLC
[14] = system: NCI-H522 lung
[15] = system: SK-OV-3 ovarian
[16] = system: NCI-H460 lung
[17] = system: OVCAR-5 ovarian
[18] = system: BT-549 breast
[19] = system: A498 renal
[20] = system: HT29 colon
[21] = system: A549 NSCLC
[22] = system: NCI-H226 lung
[23] = system: SK-MEL-5 melanoma
[24] = system: KM12 colon
[25] = system: RPMI-8226 leukemia
[26] = system: SK-MEL-28 melanoma
[27] = system: UO-31 renal
[28] = system: COLO 205 colon
[29] = system: K-562 leukemia
[30] = system: HS 578T breast
[31] = system: DU-145 prostate
[32] = system: U251 CNS
[33] = system: SF-295 CNS
[34] = system: SN12C renal
[35] = system: NCI/ADR-RES ovarian
[36] = system: OVCAR-3 ovarian
[37] = system: NCI-H23 lung
[38] = system: LOX IMVI melanoma
[39] = system: MOLT-4 leukemia
[40] = system: HOP-62 NSCLC
[41] = system: OVCAR-8 ovarian
[42] = system: SNB-75 CNS
[43] = system: ACHN renal
[44] = system: SF-268 CNS
[45] = system: UACC-62 melanoma
[46] = system: EKVX NSCLC
[47] = system: HL-60(TB) leukemia
[48] = system: MDA-MB-231 breast
[49] = system: PC-3 prostate
[50] = system: MDA-MB-435
[51] = system: SW-620 colon
[52] = system: SR leukemia
[53] = system: RXF 393 renal

OCC1OC(N2C=C(c3nc4ccccc4s3)C3C=CC=CC32)C(O)C(O)C1O (stereo unspecified)
GI50 [1]: 14.8 µM | TGI [1]: 42.9 µM | GI50 [2]: 11.5 µM | TGI [2]: 42.4 µM | GI50 [3]: 12.5 µM | TGI [3]: 32 µM | GI50 [4]: 14.8 µM | TGI [4]: 40.3 µM | GI50 [5]: 31.7 µM | TGI [5]: > 50 µM | GI50 [6]: 16.9 µM | TGI [6]: > 50 µM | GI50 [7]: 19.8 µM | TGI [7]: > 50 µM | GI50 [8]: 18.1 µM | TGI [8]: > 50 µM | GI50 [9]: 31.1 µM | TGI [9]: > 50 µM | GI50 [10]: 15.3 µM | TGI [10]: > 50 µM | GI50 [11]: 22.1 µM | TGI [11]: > 50 µM | GI50 [12]: 17.6 µM | TGI [12]: > 50 µM | GI50 [13]: 9.51 µM | TGI [13]: 30.2 µM | GI50 [14]: > 50 µM | TGI [14]: > 50 µM | GI50 [15]: 41.1 µM | TGI [15]: > 50 µM | GI50 [16]: 24 µM | TGI [16]: > 50 µM | GI50 [17]: 16.5 µM | TGI [17]: > 50 µM | GI50 [18]: 16.5 µM | TGI [18]: > 50 µM | GI50 [19]: 16 µM | TGI [19]: 38.3 µM | GI50 [20]: 19 µM | TGI [20]: > 50 µM | GI50 [21]: 18.7 µM | TGI [21]: > 50 µM | GI50 [22]: 14.5 µM | TGI [22]: > 50 µM | GI50 [23]: 12.1 µM | TGI [23]: 30.5 µM | GI50 [24]: 11 µM | TGI [24]: 24.3 µM | GI50 [25]: 11.4 µM | TGI [25]: 36.4 µM | GI50 [26]: 19.2 µM | TGI [26]: > 50 µM | GI50 [27]: 24.8 µM | TGI [27]: > 50 µM | GI50 [28]: 9.38 µM | TGI [28]: 20.9 µM | GI50 [29]: 19 µM | TGI [29]: > 50 µM | GI50 [30]: 20.1 µM | TGI [30]: > 50 µM | GI50 [31]: 20.6 µM | TGI [31]: > 50 µM | GI50 [32]: 16.6 µM | TGI [32]: > 50 µM | GI50 [33]: 13.4 µM | TGI [33]: 37.9 µM | GI50 [34]: 28.8 µM | TGI [34]: > 50 µM | GI50 [35]: > 50 µM | TGI [35]: > 50 µM | GI50 [36]: 14.9 µM | TGI [36]: > 50 µM | GI50 [37]: 15.6 µM | TGI [37]: > 50 µM | GI50 [38]: 10.9 µM | TGI [38]: 26 µM | GI50 [39]: 36.5 µM | TGI [39]: > 50 µM | GI50 [40]: 20.8 µM | TGI [40]: > 50 µM | GI50 [41]: 18.9 µM | TGI [41]: > 50 µM | GI50 [42]: 18.1 µM | TGI [42]: > 50 µM | GI50 [43]: 14.7 µM | TGI [43]: > 50 µM | GI50 [44]: 15 µM | TGI [44]: > 50 µM | GI50 [45]: 12.5 µM | TGI [45]: 36.8 µM | GI50 [46]: 18.1 µM | TGI [46]: > 50 µM | GI50 [47]: 17.1 µM | TGI [47]: > 50 µM | GI50 [48]: 15.4 µM | TGI [48]: > 50 µM | GI50 [49]: 13 µM | TGI [49]: > 50 µM | GI50 [50]: 11.8 µM | TGI [50]: 28.1 µM | GI50 [51]: 21 µM | TGI [51]: > 50 µM | GI50 [52]: 15.9 µM | TGI [52]: > 50 µM | GI50 [53]: 18.9 µM | TGI [53]: > 50 µM
